Measured values reported in EP4603105A1, “PHARMACEUTICAL COMPOSITION CONTAINING CYCLIC COMPOUND HAVING SELECTIVE KRAS INHIBITORY EFFECT AGAINST HRAS AND NRAS” (CHUGAI SEIYAKU KABUSHIKI KAISHA, priority 2022, dated 2024).
Like-named read-outs stand apart in the source and are kept apart here.

Key:
[1] = target: GDP-bound KRAS wild-type protein (Homo sapiens, UniProt P01116); test: Binding to KRAS by surface plasmon resonance (SPR), dissociation constant KD; conditions: 1:1 binding model
Method in brief: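 Running buffer contained 10 µM GDP and 10 mM MgCl2 to keep RAS in the GDP state, with 4% DMSO at pH 7.4. Compounds were flowed at 100 µL/min in 75 s steps of rising concentration over captured biotin-Avi RAS at 30°C. Sensorgrams were fitted 1:1 for KD.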

[2] = target: GDP-bound NRAS wild-type protein (Homo sapiens, UniProt P01111); test: Binding to NRAS by surface plasmon resonance (SPR), KD and KD ratio to KRAS
GDP-bound NRAS wild-type protein, sequence (P01111 whole entry): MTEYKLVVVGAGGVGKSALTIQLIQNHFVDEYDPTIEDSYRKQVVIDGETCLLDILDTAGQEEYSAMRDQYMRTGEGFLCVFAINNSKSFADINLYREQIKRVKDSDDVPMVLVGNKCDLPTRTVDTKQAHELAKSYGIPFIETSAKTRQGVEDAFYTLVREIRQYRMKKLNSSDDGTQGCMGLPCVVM
Method in brief: (§1)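 Measured at 30°C: SPR with GDP-loaded, E. coli-expressed biotin-Avi RAS captured (~100–300 RU), ascending 75 s compound injections, HBS pH 7.4 with GDP, MgCl2, 4% DMSO. KD from 1:1 fit.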

HRAS wild-type protein = HRAS wild-type protein (Homo sapiens, UniProt P01112); test: Binding to HRAS by surface plasmon resonance (SPR), KD and KD ratio to KRAS
HRAS wild-type protein, sequence (P01112 whole entry): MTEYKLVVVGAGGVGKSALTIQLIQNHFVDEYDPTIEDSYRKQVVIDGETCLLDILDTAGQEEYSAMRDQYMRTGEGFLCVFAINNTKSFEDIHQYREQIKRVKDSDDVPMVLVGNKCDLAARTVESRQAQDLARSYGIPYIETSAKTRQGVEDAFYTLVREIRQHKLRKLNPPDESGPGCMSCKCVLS
Method in brief: as §1

[3] = test system: human lung cancer strain NCI-H441; test: NCI-H441 cell proliferation inhibitory activity (CellTiter-Glo, 4 days); assay type: cell-based; conditions: read-out: NCl-H441 IC50
Method in brief: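 Signal came from […] measured per well once the reagent was added. Beforehand, cells were cultured at 37°C and 5% carbon dioxide on a compound series serially diluted in dimethyl sulfoxide.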

[4] = ratio of KD with respect to GDP-bound NRAS wild-type protein to KD with respect to KRAS
[5] = ratio of KD with respect to HRAS wild-type protein to KD with respect to KRAS
[6] = 50% proliferation inhibitory concentration, four days
[7] = ratio of KD for GDP-bound NRAS wild-type protein to KD for KRAS
[8] = ratio of KD for HRAS wild-type protein to KD for KRAS

GDP-bound KRAS wild-type protein, sequence (P01116 1-188 isoform P01116-2): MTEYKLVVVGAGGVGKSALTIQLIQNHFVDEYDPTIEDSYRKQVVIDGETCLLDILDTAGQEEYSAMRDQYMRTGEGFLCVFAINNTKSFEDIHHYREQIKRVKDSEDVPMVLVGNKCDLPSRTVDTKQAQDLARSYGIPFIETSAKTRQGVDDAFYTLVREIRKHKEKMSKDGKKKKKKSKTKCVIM

Compound | Kd ([1]; Single Cycle Kinetics) | NRAS /KRAS [2, 4] | HRAS /KRAS (HRAS wild-type protein; [5]) | IC50 [3, 6] | Kd [1] | NRAS /KRAS [2, 7] | HRAS /KRAS (HRAS wild-type protein; [8]) | IC50 ([3]; NCI-H441 cells, 4 days)
CCO[C@@H]1C[C@H]2C(=O)NC3(CCC3)C(=O)N(C)[C@@H](C3CCCC3)C(=O)N(C)[C@H](C(=O)N(C)C)CC(=O)N(C)[C@@H](CC(C)C)C(=O)N[C@@H]([C@@H](C)CC)C(=O)N(C)CC(=O)N(C)[C@H]3C/C=C\CCN(C3=O)[C@@H](Cc3ccc(F)cc3C)C(=O)N(C)CC(=O)N[C@@H](CCc3ccc(Cl)c(Cl)c3)C(=O)N2C1 [PP1480] | 0.92 nM | A (a compound having 10 or more and less than 20 is denoted as A) | B (a compound having 3 or more and less than 10 is denoted as B) | 85.8 nM | – | – | – | –
CCO[C@@H]1C[C@H]2C(=O)NC3(CCC3)C(=O)N(C)[C@@H](C3CCCC3)C(=O)N(C)[C@H](C(=O)N(C)C)CC(=O)N(C)[C@@H](CC(C)C)C(=O)N[C@@H]([C@@H](C)CC)C(=O)N(C)CC(=O)N(C)[C@H]3C/C=C\CCN(C3=O)[C@@H](Cc3ccc(F)cc3)C(=O)N(C)CC(=O)N[C@@H](CCc3ccc(Cl)c(Cl)c3)C(=O)N2C1 [PP1482] | 0.45 nM | A (a compound having 10 or more and less than 20 is denoted as A) | B (a compound having 3 or more and less than 10 is denoted as B) | 76.4 nM | – | – | – | –
CCO[C@@H]1C[C@H]2C(=O)NC3(CCC3)C(=O)N(C)[C@@H](C3CCCC3)C(=O)N(C)[C@H](C(=O)N(C)C)CC(=O)N(C)[C@@H](CC3CC3)C(=O)N[C@@H]([C@@H](C)CC)C(=O)N(C)CC(=O)N(C)[C@H]3C/C=C\CCN(C3=O)[C@@H](Cc3ccc(C)cc3)C(=O)N(C)CC(=O)N[C@@H](CCc3cc(F)c(Cl)c(F)c3)C(=O)N2C1 [PP1484] | 0.45 nM | A (a compound having 10 or more and less than 20 is denoted as A) | A (a compound having 10 or more and less than 20 is denoted as A) | 59.3 nM | – | – | – | –
CCO[C@@H]1C[C@H]2C(=O)NC3(CCC3)C(=O)N(C)[C@@H](C3CCCC3)C(=O)N(C)[C@H](C(=O)N(C)C)CC(=O)N(C)[C@@H](CC3CC3)C(=O)N[C@@H]([C@@H](C)CC)C(=O)N(C)CC(=O)N(C)[C@H]3C/C=C\CCN(C3=O)[C@@H](Cc3ccc(C)cc3)C(=O)N(C)CC(=O)N[C@@H](CCc3ccc(Cl)c(Cl)c3)C(=O)N2C1 [PP1485] | 0.28 nM | A (a compound having 10 or more and less than 20 is denoted as A) | A (a compound having 10 or more and less than 20 is denoted as A) | 30.5 nM | – | – | – | –
CCOC[C@H]1C(=O)N[C@@H]([C@@H](C)CC)C(=O)N(C)CC(=O)N(C)[C@H]2C/C=C\CCN(C2=O)[C@@H](Cc2ccc(C(F)(F)F)cc2)C(=O)N(C)CC(=O)N[C@@H](CCc2ccc(C(F)(F)F)c(OC)c2)C(=O)N2C[C@@H](C)C[C@H]2C(=O)N(C)C2(CCC2)C(=O)N(C)[C@@H](C2CCCC2)C(=O)N(C)[C@H](C(=O)N(C)C)CC(=O)N1C [PP2359] | – | – | – | – | 0.02 nM | A (a compound having 10 or more and less than 20 is denoted as A) | B (a compound having 3 or more and less than 10 is denoted as B) | 7.6 nM
CCC[C@H]1C(=O)N[C@@H]([C@@H](C)CC)C(=O)N(C2CC2)CC(=O)N(C)[C@H]2C/C=C\CCN(C2=O)[C@@H](Cc2ccc(C(F)(F)F)cc2)C(=O)N(C)CC(=O)N[C@@H](CCc2ccc(C(F)(F)F)c(OC)c2)C(=O)N2C[C@@H](C)C[C@H]2C(=O)N(C)C2(CCC2)C(=O)N(C)[C@@H](C2CCCC2)C(=O)N(C)[C@H](C(=O)N(C)C)CC(=O)N1C [PP2360] | – | – | – | – | 0.16 nM | A (a compound having 10 or more and less than 20 is denoted as A) | B (a compound having 3 or more and less than 10 is denoted as B) | 2.9 nM
CCC[C@H]1C(=O)N[C@@H]([C@@H](C)CC)C(=O)N2CCC[C@H]2C(=O)N(C)[C@H]2C/C=C\CCN(C2=O)[C@@H](Cc2ccc(C(F)(F)F)cc2)C(=O)N(C)CC(=O)N[C@@H](CCc2ccc(C(F)(F)F)c(OC)c2)C(=O)N2C[C@@H](C)C[C@H]2C(=O)N(C)C2(CCC2)C(=O)N(C)[C@@H](C2CCCC2)C(=O)N(C)[C@H](C(=O)N(C)C)CC(=O)N1C [PP2362] | – | – | – | – | 0.076 nM | A (a compound having 10 or more and less than 20 is denoted as A) | A (a compound having 10 or more and less than 20 is denoted as A) | 4.8 nM
CCOC[C@H]1C(=O)N[C@@H]([C@@H](C)CC)C(=O)N2CCC[C@H]2C(=O)N(C)[C@H]2C/C=C\CCN(C2=O)[C@@H](Cc2ccc(C(F)(F)F)cc2)C(=O)N(C)CC(=O)N[C@@H](CCc2ccc(C(F)(F)F)c(OC)c2)C(=O)N2C[C@@H](C)C[C@H]2C(=O)N(C)C2(CCC2)C(=O)N(C)[C@@H](C2CCCC2)C(=O)N(C)[C@H](C(=O)N(C)C)CC(=O)N1C [PP2363] | – | – | – | – | 0.062 nM | A (a compound having 10 or more and less than 20 is denoted as A) | B (a compound having 3 or more and less than 10 is denoted as B) | 7.5 nM
CCC[C@H]1C(=O)N[C@@H]([C@@H](C)CC)C(=O)N(C2CC2)CC(=O)N(C)[C@H]2C/C=C\CCN(C2=O)[C@@H](Cc2ccc(C)cc2)C(=O)N(C)CC(=O)N[C@@H](CCc2ccc(C(F)(F)F)c(OC)c2)C(=O)N2C[C@@H](C)C[C@H]2C(=O)N(C)C2(CCC2)C(=O)N(C)[C@@H](C2CCCC2)C(=O)N(C)[C@H](C(=O)N(C)C)CC(=O)N1C [PP2366] | – | – | – | – | 0.048 nM | A (a compound having 10 or more and less than 20 is denoted as A) | A (a compound having 10 or more and less than 20 is denoted as A) | 4.5 nM
CCCOC[C@H]1C(=O)N[C@@H]([C@@H](C)CC)C(=O)N(C2CC2)CC(=O)N(C)[C@H]2C/C=C\CCN(C2=O)[C@@H](Cc2ccc(C)cc2)C(=O)N(C)CC(=O)N[C@@H](CCc2ccc(C(F)(F)F)c(OC)c2)C(=O)N2C[C@@H](C)C[C@H]2C(=O)N(C)C2(CCC2)C(=O)N(C)[C@@H](C2CCCC2)C(=O)N(C)[C@H](C(=O)N(C)C)CC(=O)N1C [PP2367] | – | – | – | – | 0.075 nM | A (a compound having 10 or more and less than 20 is denoted as A) | B (a compound having 3 or more and less than 10 is denoted as B) | 2.1 nM
CCC[C@H]1C(=O)N[C@@H]([C@@H](C)CC)C(=O)N2CCC[C@H]2C(=O)N(C)[C@H]2C/C=C\CCN(C2=O)[C@@H](Cc2ccc(C)cc2)C(=O)N(C)CC(=O)N[C@@H](CCc2ccc(C(F)(F)F)c(OC)c2)C(=O)N2C[C@@H](C)C[C@H]2C(=O)N(C)C2(CCC2)C(=O)N(C)[C@@H](C2CCCC2)C(=O)N(C)[C@H](C(=O)N(C)C)CC(=O)N1C [PP2368] | – | – | – | – | 0.045 nM | A (a compound having 10 or more and less than 20 is denoted as A) | A (a compound having 10 or more and less than 20 is denoted as A) | 4.1 nM
CCCOC[C@H]1C(=O)N[C@@H]([C@@H](C)CC)C(=O)N2CCC[C@H]2C(=O)N(C)[C@H]2C/C=C\CCN(C2=O)[C@@H](Cc2ccc(C)cc2)C(=O)N(C)CC(=O)N[C@@H](CCc2ccc(C(F)(F)F)c(OC)c2)C(=O)N2C[C@@H](C)C[C@H]2C(=O)N(C)C2(CCC2)C(=O)N(C)[C@@H](C2CCCC2)C(=O)N(C)[C@H](C(=O)N(C)C)CC(=O)N1C [PP2369] | – | – | – | – | 0.062 nM | A (a compound having 10 or more and less than 20 is denoted as A) | B (a compound having 3 or more and less than 10 is denoted as B) | 4.5 nM
CCC[C@H]1C(=O)N[C@@H]([C@@H](C)CC)C(=O)N(C)CC(=O)N(C)[C@H]2C/C=C\CCN(C2=O)[C@@H](CC2CCCCC2)C(=O)N(C)CC(=O)N[C@@H](CCc2ccc(C(F)(F)F)c(OC)c2)C(=O)N2C[C@@H](C)C[C@H]2C(=O)N(C)C2(CCC2)C(=O)N(C)[C@@H](C2CCCC2)C(=O)N(C)[C@H](C(=O)N(C)C)CC(=O)N1C [PP2370] | – | – | – | – | 0.54 nM | B (a compound having 3 or more and less than 10 is denoted as B) | B (a compound having 3 or more and less than 10 is denoted as B) | 25.7 nM
CCOC[C@H]1C(=O)N[C@@H]([C@@H](C)CC)C(=O)N(C)CC(=O)N(C)[C@H]2C/C=C\CCN(C2=O)[C@@H](CC2CCCCC2)C(=O)N(C)CC(=O)N[C@@H](CCc2ccc(C(F)(F)F)c(OC)c2)C(=O)N2C[C@@H](C)C[C@H]2C(=O)N(C)C2(CCC2)C(=O)N(C)[C@@H](C2CCCC2)C(=O)N(C)[C@H](C(=O)N(C)C)CC(=O)N1C [PP2371] | – | – | – | – | 0.64 nM | A (a compound having 10 or more and less than 20 is denoted as A) | B (a compound having 3 or more and less than 10 is denoted as B) | 41.9 nM
CCC[C@H]1C(=O)N[C@@H]([C@@H](C)CC)C(=O)N(C2CC2)CC(=O)N(C)[C@H]2C/C=C\CCN(C2=O)[C@@H](CC2CCCCC2)C(=O)N(C)CC(=O)N[C@@H](CCc2ccc(C(F)(F)F)c(OC)c2)C(=O)N2C[C@@H](C)C[C@H]2C(=O)N(C)C2(CCC2)C(=O)N(C)[C@@H](C2CCCC2)C(=O)N(C)[C@H](C(=O)N(C)C)CC(=O)N1C [PP2372] | – | – | – | – | 0.79 nM | A (a compound having 10 or more and less than 20 is denoted as A) | B (a compound having 3 or more and less than 10 is denoted as B) | 3.3 nM
